Reference: ChEMBL document CHEMBL6071135, “New resorcylic acid derivatives of Lysimachia tengyuehensis against MRSA and VRE by interfering with bacterial metabolic imbalance” (Eur J Med Chem, 2024)
Converted amounts (≈) assume the structure as drawn. The source made the active and inactive calls. The calls are words filed in the database; no cut-off is given here.

Tests used:
Enterococcus faecalis [1] = test: Bactericidal activity against vancomycin-resistant Enterococcus faecalis ATCC51299 measured after 24 hrs by CLSI based broth microdilution method; format: functional
Enterococcus faecalis [2] = test: Antibacterial activity against vancomycin-resistant Enterococcus faecalis ATCC51299 measured after 24 hrs by CLSI based broth microdilution method; format: functional
Staphylococcus aureus [3] = test: Bactericidal activity against methicillin-resistant Staphylococcus aureus measured after 24 hrs by CLSI based broth microdilution method; format: functional
Staphylococcus aureus [4] = test: Antibacterial activity against methicillin-resistant Staphylococcus aureus measured after 24 hrs by CLSI based broth microdilution method; format: functional
Enterococcus faecalis [5] = test: Drug resistance, ratio of MIC for vancomycin-resistant Enterococcus faecalis ATCC51299 after 20 days exposure to MIC for vancomycin-resistant Enterococcus faecalis ATCC51299 during first exposure; format: functional; conditions: time 20 day
Enterococcus faecalis [6] = test: Bactericidal activity against vancomycin-resistant Enterococcus faecalis ATCC51299 assessed as reduction in number of bacteria at 2 times MIC measured within 1 hr by time-kill assay; format: functional, organism-based
Staphylococcus aureus [7] = test: Antibacterial activity against methicillin resistant Staphylococcus aureus infected in female Kunming mouse model of skin infection assessed as increase in neovascularization at 8 mg/kg administered daily pre-infected for 4 hrs followed by compound administration for 7 days; format: functional, organism-based; conditions: time 7.0 day
Staphylococcus aureus [8] = test: Antibacterial activity against methicillin resistant Staphylococcus aureus infected in female Kunming mouse model of skin infection assessed as reduction in bacterial load of wound at 8 mg/kg administered daily pre-infected for 4 hrs followed by compound administration for 7 days; format: functional, organism-based; conditions: time 7.0 day
[9] = Toxicity in Kunming mouse assessed as morphological abnormalities at 8 mg/kg administered daily and measured after 7 days; format: organism-based; conditions: in vivo, 168 h, time 7 day
Staphylococcus aureus [10] = test: Antibacterial activity against methicillin resistant Staphylococcus aureus infected in female Kunming mouse model of skin infection assessed as suppression of purulent secretion at 8 mg/kg administered daily pre-infected for 4 hrs followed by compound administration for 7 days; format: functional, organism-based; conditions: time 7.0 day
Staphylococcus aureus [11] = test: Antibacterial activity against methicillin resistant Staphylococcus aureus infected in female Kunming mouse model of skin infection assessed as reduction in wound size at 8 mg/kg administered daily pre-infected for 4 hrs followed by compound administration for 7 days; format: functional, organism-based; conditions: time 7.0 day
Staphylococcus aureus [12] = test: Bactericidal activity against methicillin-resistant Staphylococcus aureus assessed as reduction in number of bacteria at 2 times MIC measured within 1 hr by time-kill assay; format: functional, organism-based
Staphylococcus aureus [13] = test: Antibacterial activity against methicillin resistant Staphylococcus aureus infected in female Kunming mouse model of skin infection assessed as reduction in inflammatory cell infiltration at 8 mg/kg administered daily pre-infected for 4 hrs followed by compound administration for 7 days; format: functional, organism-based; conditions: time 7.0 day

| SMILES | MBC (Enterococcus faecalis [1]) | MIC (Enterococcus faecalis [2]) | MBC (Staphylococcus aureus [3]) | MIC (Staphylococcus aureus [4]) | further results |
| --- | --- | --- | --- | --- | --- |
| CCCCCCCCCCCCc1cc(O)cc(O)c1C(=O)O | 4 µg/mL (≈ 12.4 µM) | 4 µg/mL (≈ 12.4 µM) | 8 µg/mL (≈ 24.8 µM) | 8 µg/mL (≈ 24.8 µM) |  |
| CCCCCCCCCCCc1cc(O)cc(O)c1C(=O)O | 8 µg/mL (≈ 25.9 µM) | 8 µg/mL (≈ 25.9 µM) | 8 µg/mL (≈ 25.9 µM) | 8 µg/mL (≈ 25.9 µM) |  |
| COc1cccc(OC)c1C(=O)N[C@@H]1C(=O)N2[C@@H]1SC(C)(C)[C@@H]2C(=O)O [METHICILLIN] |  |  |  | > 128 µg/mL |  |
| CCCCCCCCCCCCCCc1cc(O)cc(O)c1C(=O)O | 8 µg/mL (≈ 22.8 µM) | 4 µg/mL (≈ 11.4 µM) | 4 µg/mL (≈ 11.4 µM) | 4 µg/mL (≈ 11.4 µM) |  |
| CC1(C)S[C@@H]2[C@H](NC(=O)[C@H](N)c3ccccc3)C(=O)N2[C@H]1C(=O)O [AMPICILLIN] |  | 2 µg/mL (≈ 5.72 µM) |  |  | fold change (FC) (Enterococcus faecalis [5]): 4; Activity (Enterococcus faecalis [6]): inactive |
| CCCCCCCCCCCCCc1cc(O)cc(O)c1C(=O)O | 8 µg/mL (≈ 23.8 µM) | 8 µg/mL (≈ 23.8 µM) | 4 µg/mL (≈ 11.9 µM) | 4 µg/mL (≈ 11.9 µM) |  |
| CCCCCCCCCCCCCc1cc(O)cc(O)c1 | 4 µg/mL (≈ 13.7 µM) | 4 µg/mL (≈ 13.7 µM) | 4 µg/mL (≈ 13.7 µM) | 4 µg/mL (≈ 13.7 µM) |  |
| CCCCCCCCCCCCc1cc(O)cc(O)c1 | 4 µg/mL (≈ 14.4 µM) | 4 µg/mL (≈ 14.4 µM) | 8 µg/mL (≈ 28.7 µM) | 8 µg/mL (≈ 28.7 µM) |  |
| CN[C@H](CC(C)C)C(=O)N[C@H]1C(=O)N[C@@H](CC(N)=O)C(=O)N[C@H]2C(=O)N[C@H]3C(=O)N[C@H](C(=O)N[C@H](C(=O)O)c4cc(O)cc(O)c4-c4cc3ccc4O)[C@H](O)c3ccc(c(Cl)c3)Oc3cc2cc(c3O[C@@H]2O[C@H](CO)[C@@H](O)[C@H](O)[C@H]2O[C@H]2C[C@](C)(N)[C@H](O)[C@H](C)O2)Oc2ccc(cc2Cl)[C@H]1O [VANCOMYCIN] |  |  |  |  | Activity (Staphylococcus aureus [7]): Active; Activity (Staphylococcus aureus [8]): Active; Activity [9]: Non-Toxic; Activity (Staphylococcus aureus [10]): Active; Activity (Staphylococcus aureus [11]): Active; Activity (Staphylococcus aureus [12]): inactive; Activity (Staphylococcus aureus [13]): Active |
